Tests used:
Feline Onychectomy = assay: Feline onychectomy pain study FCL-12-002 (Example 9); format: in vivo, cat
Experimental: This controlled, non-GLP, laboratory study used three treatment groups: Group 1 was dosed with 20-mg grapiprant-containing Formulation […] tablets the night before (about 12 hours) and 30 minutes before surgery; Group 2 was the negative control dosed with empty gelatin capsules; and Group 3 was dosed with two 20-mg grapiprant-containing Formulation […] tablets given 30 minutes before surgery. Ten adult cats were in each group. The cats were acclimated for 7 days. Cats were divided into two sequences of 15 cats each to allow for surgeries over two days. The day of surgery was considered Day 0 for that sequence. One cat from each grapiprant-treated group was removed before surgical procedures were performed. On Day -1/0 for that sequence, all animals were administered with the appropriate test article before onychectomy. All animals received a dose of butorphanol before surgery. Following Day 2 procedures, all animals were transferred to an open feline colony. Study parameters of interest included statistical analysis of recovery, sedation, analgesia scores, and clinical pathology.

[1] = tested on: thermal hyperalgesia induced by intraplantar injection of PGE2; details: oral administration; cited from earlier work
onychectomy in cats = assay: Onychectomy pain model in cats (Example 5); format: in vivo, cat; details: vs placebo
Description: The objective of this pilot study was to validate that this model/pain scoring system can differentiate positive from negative control animals in controlling the pain and inflammation of onychectomy and to test the effectiveness of a single dose of grapiprant in controlling the pain and inflammation associated with onychectomy in cats.
Following an acclimation period of 7, 8, or 9 days, a total of 30 adult cats were randomly divided between three treatment groups with ten animals assigned to each group. All animals were randomly assigned to a given surgery day such that within each day, an equal number of cats was from each treatment group. Within each day, the order of surgery was also randomized. […]
Surgical Procedure. […] During surgical procedures, each animal was monitored for at least heart rate and respiratory rate. […] Following surgery, each animal was periodically monitored until full recovery. […] Extubation time (time zero=T0) was recorded as the end of surgery.
All study animals were scored for sedation and analgesia the following schedule in Table 10. […]
Analgesia scores were given at specified time points during the study. […] Analgesia was scored by the same assessor during the first 8 hours of the study. […]
Results. The cat was evaluated as the experimental unit. Differences between treatment groups were evaluated at alpha of 0.05. […]

[2] = 9-month oral toxicity study in dogs with 4-week recovery (Example 7)
Experimental: Four animals per sex were used in each dose group and two additional animals per sex in the 50 mg/kg dose group for recovery purposes. Clinical signs and food consumption were assessed daily. Bodyweight was recorded weekly. Ophthalmologic examination was performed on Weeks 20 and 38 of the dosing phase and Week 4 of the recovery phase. Electrocardiograms were recorded on Weeks 13, 26, and 38 of the dosing phase and Week 4 of the recovery phase. Hematology, coagulation, and serum chemistry parameters were monitored on Weeks 13, 26, and 39 of the dosing phase and Week 4 or 5 of the recovery phase. Urinalyses were performed on Week 37 of the dosing phase and Week 3 or 4 of the recovery phase. […] At the end of the dosing or recovery period, dogs were euthanized and necropsied. After gross examination, selected organs were weighed, and a comprehensive set of tissues was collected and processed for microscopic examination.

dog EP4 receptors = dog EP4 receptors (Canis lupus familiaris, UniProt A0A8I3MI92); details: dog EP4 receptor; read-out: Ki, inhibition of [3H]PGE binding; cited from earlier work
Sequence of dog EP4 receptors (A0A8I3MI92 1-492): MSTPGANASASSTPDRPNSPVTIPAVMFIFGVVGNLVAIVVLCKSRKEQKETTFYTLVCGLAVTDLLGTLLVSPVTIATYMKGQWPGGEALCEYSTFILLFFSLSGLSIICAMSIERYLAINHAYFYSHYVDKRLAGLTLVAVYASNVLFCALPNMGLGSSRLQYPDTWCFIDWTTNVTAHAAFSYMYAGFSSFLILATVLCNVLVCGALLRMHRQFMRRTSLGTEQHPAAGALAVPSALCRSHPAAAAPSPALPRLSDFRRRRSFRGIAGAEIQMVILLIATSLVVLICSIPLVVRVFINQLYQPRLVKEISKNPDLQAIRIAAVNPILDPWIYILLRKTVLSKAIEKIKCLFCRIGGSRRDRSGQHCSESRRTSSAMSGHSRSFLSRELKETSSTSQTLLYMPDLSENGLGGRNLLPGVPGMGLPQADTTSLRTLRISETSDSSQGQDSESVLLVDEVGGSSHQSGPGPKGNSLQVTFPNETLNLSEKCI

[3] = cats, 20-mg Formulation A34 tablets before onychectomy, vs placebo control

## CCc1nc2c(C)nc(C)cc2n1-c1ccc(CCNC(=O)NS(=O)(=O)c2ccc(C)cc2)cc1 [grapiprant, N-{2-[4-(2-ethyl-4,6-dimethyl-1H-imidazo[4,5-c]pyridin-1-yl)phenyl]ethyl}-N′-[(4-methylphenyl)sulfonyl]urea]
Feline Onychectomy; Group 1 (about 12 hours and 30 minutes before surgery) vs Group 3 (two tablets 30 minutes before surgery)
  comparison of dosing regimens: dosing the cats with grapiprant the night before surgery was more effective
Feline Onychectomy; both groups of grapiprant treated animals
  pain interventions: fewer pain interventions than placebo control
Feline Onychectomy; [3]
  analgesia scores: decreased analgesia scores (reduced pain)
  sedation scores: without an apparent effect on sedation scores
[1]
  ED50, reduction of thermal hyperalgesia: 12.8 mg/kg
Onychectomy in cats; 20 mg tablet Formulation A34 about 30 minutes before onychectomy
  sedation scores: without an apparent effect on sedation scores
Onychectomy in cats; oral tablet about 30 minutes before onychectomy (grapiprant: 20 mg tablet Formulation A34, Day 0 only; Onsior: 6 mg, Days 0-2)
  analgesia scores: decreased analgesia scores (reduced pain)
[2]; 6 mg/kg, Week 39
  decrease in mean albumin/globulin (A/G) ratio: −16%
[2]; 50 mg/kg
  histopathological finding: mild regeneration of the mucosal epithelium of the ileum in one male
[2]; 50 mg/kg, Weeks 26 and 39
  decrease in mean serum albumin vs. control value: up to −14%
[2]; 1, 6, and 50 mg/kg/day dosing regimen
  accumulation: no accumulation of grapiprant was observed
[2]; Beagle dogs, oral once daily, nine months
  level with no observed adverse effects: 6 mg/kg
[2]; dose-related trend, 1-50 mg/kg
  individual decrease in albumin vs. pre-study: up to −41%
  individual decrease in calcium: up to −18%
  individual decrease in total protein: up to −30%
Dog EP4 receptors
  Ki: 24.1 ± 2.7 nM

From patent publication US12109218B2, “Compositions of grapiprant and methods for using the same” (ARATANA THERAPEUTICS, INC., priority 2014, dated 2024)
